Experiments:
Format in all cases: in vivo
Puccinia recondita [1] = test: Example 8: efficacy against Puccinia recondita on wheat plants, formulated compounds; conditions: 240 h, alone, grading 10 days after contamination
Description: (§1) The formulated compounds are diluted with water to obtain the desired active material concentration Wheat plants (Scipion variety) in starter cups, sown on 50/50 peat soil-pozzolana substrate and grown at 12° C., are treated at the 1-leaf stage (10 cm tall) by spraying with the aqueous suspension described above.
(§2) Plants, used as controls, are treated with an aqueous solution not containing the active material.
(§3) After 24 hours, the plants are contaminated by spraying the leaves with an aqueous suspension of Puccinia recondita spores (100,000 spores per ml). The spores are collected from a 10-day-old contaminated wheat and are suspended in water containing 2.5 ml/l of tween 80 10%. The contaminated wheat plants are incubated for 24 hours at 20° C. and at 100% relative humidity, and then for 10 days at 20° C. and at 70% relative humidity. Grading is carried out 10 days after the contamination, in comparison with the control plants.

Botrytis cinerea [2] = test: Example 16: efficacy against Botrytis cinerea on gherkin plants, formulated compounds; conditions: alone, grading 5 to 7 days after contamination
Description: (§4) The formulated compounds are diluted with water to obtain the desired active material concentration.
(§5) Gherkin plants (Petit vert de Paris variety) in starter cups, sown on a 50/50 peat soil-pozzolana substrate and grown at 18-20° C., are treated at the cotyledon Z11 stage by spraying with the aqueous suspension described above. Plants, used as controls, are treated with an aqueous solution not containing the active material.
(§6) After 24 hours, the plants are contaminated by depositing drops of an aqueous suspension of Botrytis cinerea spores (150,000 spores per ml) on upper surface of the leaves. The spores are collected from a 15-day-old culture and are suspended in a nutrient solution composed of: • 20 g/L of gelatine • 50 g/L of cane sugar • 2 g/L of NH4NO3 • 1 g/L of KH2PO4
(§7) The contaminated gherkin plants are settled for 5/7 days in a climatic room at 15-11° C. (day/night) and at 80% relative humidity. Grading (% of efficacy) is carried out 5 to 7 days after the contamination, in comparison with the control plants.

[3] = system: Mycosphaerella graminicola; test: Example 1: efficacy against Mycosphaerella graminicola on wheat plants, spray 24 h before contamination; conditions: Zymoseptoria tritici, alone, grading 21 to 28 days after contamination
Description: (§8) The active ingredients tested are prepared by potter homogenisation in a mixture of acetone/tween/water. This suspension is then diluted with water to obtain the desired active material concentration.
(§9) Wheat plants (Scipion variety), sown on a 50/50 peat soil-pozzolana substrate in starter cups and grown at 12° C., are treated at the 1-leaf stage (10 cm tall) by spraying with the aqueous suspension described above. Plants, used as controls, are treated with an aqueous solution not containing the active material.
(§10) After 24 hours, the plants are contaminated by spraying them with an aqueous suspension of Mycosphaerella graminicola spores (500 000 spores per ml). The spores are collected from a 7-day-old culture. The contaminated wheat plants are incubated for 72 hours at 18° C. and at 100% relative humidity, and then for 21 to 28 days at 90% relative humidity.
(§11) Grading (% of efficacy) is carried out 21 to 28 days after the contamination, in comparison with the control plants.

[4] = system: Erysiphe graminis f sp. tritici; test: Example 2: efficacy against Erysiphe graminis on wheat plants, spray 24 h before contamination; conditions: Blumeria graminis, alone, grading 7 to 14 days after contamination
Description: as §8
Wheat plants (Audace variety) in starter cups, sown on 50/50 peat soil-pozzolana substrate and grown at 12° C., are treated at the 1-leaf stage (10 cm tall) by spraying with the aqueous suspension described above.
as §2
(§12) After 24 hours, the plants are contaminated by dusting them with Erysiphe graminis f sp. tritici spores, the dusting being carried out using diseased plants.
(§13) Grading is carried out 7 to 14 days after the contamination, in comparison with the control plants.

Botrytis cinerea [5] = test: Example 3: efficacy against Botrytis cinerea on gherkin plants, spray 24 h before contamination; conditions: alone, grading 5 to 7 days after contamination
Description: as §8, §5, §6, §7

[6] = system: Erysiphe graminis f sp. tritici; test: Example 4: efficacy against Erysiphe graminis on wheat plants, formulated compounds; conditions: Blumeria graminis, alone, grading 7 to 14 days after contamination
Description: as §1, with “formulated (concentrated suspension)” for “formulated”, “(Audace” for “(Scipion”
as §2, §12, §13

Botrytis cinerea [7] = test: Example 5: efficacy against Botrytis cinerea on gherkin plants; conditions: alone, grading 5 to 7 days after contamination
Description: as §8, §5, §6, §7

Botrytis cinerea [8] = test: Example 6: efficacy against Botrytis cinerea on gherkin plants; conditions: alone, grading 5 to 7 days after contamination
Description: as §8, §5, §6, §7

[9] = system: Erysiphe graminis f sp. tritici; test: Example 7: efficacy against Erysiphe graminis on wheat plants, formulated compounds; conditions: Blumeria graminis, alone, grading 7 to 14 days after contamination
Description: as §1, with “concentration.” for “concentration”, “(Audace” for “(Scipion”
as §2
After 24 hours, the plants are contaminated by dusting them with Erysiphe graminis f sp. tritici spores, the dusting being carried out using diseased plants. Grading is carried out 7 to 14 days after the contamination, in comparison with the control plants.

Botrytis cinerea [10] = test: Example 9: efficacy against Botrytis cinerea on gherkin plants, formulated compounds; conditions: alone, grading 5 to 7 days after contamination
Description: as §4, §5, §6, §7

Puccinia recondita [11] = test: Example 10: efficacy against Puccinia recondita on wheat plants; conditions: 240 h, alone, grading 10 days after contamination
Description: as §8
Wheat plants (Scipion variety) in starter cups, sown on 50/50 peat soil-pozzolana substrate and grown at 12° C., are treated at the 1-leaf stage (10 cm tall) by spraying with the aqueous suspension described above.
as §2, §3

Sphaerotheca fuliginea = test: Example 11: efficacy against Sphaerotheca fuliginea on gherkin plants, formulated compounds; conditions: Podosphaera fuliginea, 504 h, alone, grading 21 days after contamination
Description: (§14) The formulated compounds are diluted with water to obtain the desired active material concentration
as §5, with “(Vert petit” for “(Petit vert”, “20° C./23°” for “18-20°”, “2-leaves” for “cotyledon Z11”
After 24 hours, the plants are contaminated by spraying them with an aqueous suspension of Sphaerotheca fuliginea spores (100 000 spores per ml). The spores are collected from a contaminated plants. The contaminated gerkhin plants are incubated at about 20° C./25° C. and at 60/70% relative humidity.
Grading (% of efficacy) is carried out 21 days after the contamination, in comparison with the control plants.

[12] = system: Mycosphaerella graminicola; test: Example 12: efficacy against Mycosphaerella graminicola on wheat plants, formulated compounds; conditions: Zymoseptoria tritici
Description: as §14, §9, §10, §11

Botrytis cinerea [13] = test: Example 13: efficacy against Botrytis cinerea on gherkin plants, formulated compounds; conditions: alone, grading 5 to 7 days after contamination
Description: as §4, §5, §6, §7

[14] = system: Erysiphe graminis f sp. tritici; test: Example 14: efficacy against Erysiphe graminis on wheat plants, formulated compounds; conditions: Blumeria graminis, alone, grading 7 to 14 days after contamination
Description: as §1, with “(Audace” for “(Scipion”
as §2, §12, §13

Botrytis cinerea [15] = test: Example 15: efficacy against Botrytis cinerea on gherkin plants, formulated compounds; conditions: read-out: % Efficacy
Description: as §4, §5, §6, §7

[16] = system: Erysiphe graminis f sp. tritici; test: Example 17: efficacy against Erysiphe graminis on wheat plants, formulated compounds; conditions: Blumeria graminis, alone, grading 7 to 14 days after contamination
Description: as §1, with “compounds (Compound 1 and a mix of spiroxamine (300 g/l) and prothioconazole (160 g/l)” for “compounds”, “(Audace” for “(Scipion”
as §2, §12, §13

Fc1ccc([C@]2(Cn3cncn3)O[C@H]2c2ccccc2Cl)cc1 (racemic) [Epoxiconazole, reference compound]
Emax at 15.6 g/ha (Puccinia recondita [1]; dose 15.6 g/ha): 25%

CC(C)(C)C(O)C(Oc1ccc(-c2ccccc2)cc1)n1cncn1 (stereo not drawn) [Bitertanol, reference compound]
Emax at 333 ppm (Botrytis cinerea [2]; dose 333 ppm): 0%

O=C(NCCc1ncc(C(F)(F)F)cc1Cl)c1ccccc1C(F)(F)F [Compound 1, N-{2-[3-chloro-5-(trifluoromethyl)-2-pyridinyl]ethyl}-2-trifluoromethylbenzamide]
Emax at 15 g/ha [3]: 25%
Emax at 31 g/ha [3]: 65%
Emax at 62.5 g/ha ([4]; dose 62.5 g/ha): 0%
Emax at 125 g/ha [4]: 20%
Emax at 12 ppm (Botrytis cinerea [5]; dose 12 ppm): 0%
Emax at 37 ppm (Botrytis cinerea [5]): 30%
Emax at 111 ppm (Botrytis cinerea [5]): 80%
Emax at 62.5 g/ha ([6]; dose 62.5 g/ha): 10%
Emax at 37 ppm (Botrytis cinerea [7]; dose 37 ppm): 0%
Emax at 111 ppm (Botrytis cinerea [7]): 80%
Emax at 4 ppm (Botrytis cinerea [8]; dose 4 ppm): 10%
Emax at 250 g/ha ([9]; dose 250 g/ha): 40%
Emax at 62.5 g/ha (Puccinia recondita [1]; dose 62.5 g/ha): 0%
Emax at 250 g/ha (Puccinia recondita [1]; dose 250 g/ha): 0%
Emax at 12.3 ppm (Botrytis cinerea [10]; dose 12.3 ppm): 0%
Emax at 37 ppm (Botrytis cinerea [10]; dose 37 ppm): 50%
Emax at 250 g/ha (Puccinia recondita [11]): 0%
Emax at 4.1 ppm (Sphaerotheca fuliginea; dose 4.1 ppm): 28%
Emax at 62.5 g/ha ([12]; dose 62.5 g/ha, alone, wheat, grading 21 to 28 days after contamination): 77%
Emax at 31.2 g/ha (Botrytis cinerea [13]; dose 31.2 g/ha): 20%
Emax at 62.5 g/ha (Botrytis cinerea [13]): 30%
Emax at 500 g/ha ([14]; dose 500 g/ha): 44%
Emax at 37 ppm (Botrytis cinerea [15]; dose 37 ppm, alone, gherkin, grading 5 to 7 days after contamination): 50%
Emax at 12.3 ppm (Botrytis cinerea [2]; dose 12.3 ppm): 5%
Emax at 125 g/ha [16]: 0%

CC(C1CC1)C(O)(Cn1cncn1)c1ccc(Cl)cc1 (stereo not drawn) [Cyproconazole, reference compound]
Emax at 31.2 g/ha ([6]; dose 31.2 g/ha): 15%

CC1COC(Cn2cncn2)(c2ccc(Oc3ccc(Cl)cc3)cc2Cl)O1 (stereo not drawn) [Difenconazole, reference compound]
Emax at 111 ppm (Botrytis cinerea [7]): 15%
Emax at 333 ppm (Botrytis cinerea [7]; dose 333 ppm): 25%

CC1(C(=O)Nc2ccc(O)c(Cl)c2Cl)CCCCC1 [Fenhexamid, reference compound]
Emax at 37 ppm (Sphaerotheca fuliginea; dose 37 ppm): 35%

CC(Cc1ccc(C(C)(C)C)cc1)CN1C[C@@H](C)O[C@@H](C)C1 (stereo partly drawn) [Fenpropimorph, reference compound]
Emax at 62.5 g/ha (Botrytis cinerea [13]): 10%
Emax at 125 g/ha (Botrytis cinerea [13]; dose 125 g/ha): 30%

CCCCC(O)(Cn1cncn1)c1ccc(Cl)cc1Cl (stereo not drawn) [Hexaconazole, reference compound]
Emax at 111 ppm (Botrytis cinerea [8]; dose 111 ppm): 15%

CC1(C)CCC(Cc2ccc(Cl)cc2)C1(O)Cn1cncn1 (stereo not drawn) [Metconazole, reference compound]
Emax at 31.2 g/ha ([9]; dose 31.2 g/ha): 50%

CCCCC(C#N)(Cn1cncn1)c1ccc(Cl)cc1 (stereo not drawn) [Myclobutanil, reference compound]
Emax at 333 ppm (Botrytis cinerea [10]; dose 333 ppm): 0%

CCCN(CCOc1c(Cl)cc(Cl)cc1Cl)C(=O)n1ccnc1 [Prochloraz, reference compound]
Emax at 250 g/ha ([12]; read-out: % Efficacy): 54%

CCCC1COC(Cn2cncn2)(c2ccc(Cl)cc2Cl)O1 (stereo not drawn) [Propiconazole, reference compound]
Emax at 37 ppm (Botrytis cinerea [5]): 30%
Emax at 111 ppm (Botrytis cinerea [5]): 50%
Emax at 333 ppm (Botrytis cinerea [5]; dose 333 ppm): 70%

OC(Cc1ccccc1Cl)(Cn1nc[nH]c1=S)C1(Cl)CC1 (stereo not drawn) [Prothioconazole, reference compound]
Emax at 125 g/ha [4]: 0%
Emax at 250 g/ha ([4]; dose 250 g/ha): 60%

CCCN(CC)CC1COC2(CCC(C(C)(C)C)CC2)O1 (stereo not drawn) [Spiroxamine, reference compound]
Emax at 125 g/ha ([14]; dose 125 g/ha): 0%

CC(C)(C)C(O)(CCc1ccc(Cl)cc1)Cn1cncn1 (stereo not drawn) [Tebuconazole, reference compound]
Emax at 15 g/ha [3]: 15%
Emax at 31 g/ha [3]: 15%

CC(C)(C)C(O)C(Oc1ccc(Cl)cc1)n1cncn1 (stereo not drawn) [Triadimenol, reference compound]
Emax at 250 g/ha (Puccinia recondita [11]): 50%

O=CNC(N1CCN(C(NC=O)C(Cl)(Cl)Cl)CC1)C(Cl)(Cl)Cl (stereo not drawn) [Triforine]
Emax at 37 ppm (Botrytis cinerea [15]): 0%
Emax at 111 ppm (Botrytis cinerea [15]): 15%

— patent publication US10827754B2, “Fungicidal composition comprising a pyridylethylbenzamide derivative and a compound capable of inhibiting the ergosterol biosynthesis” (BAYER INTELLECTUAL PROPERTY GMBH, priority 2004, dated 2020)
